Data as given in patent US7939546B2, “Quinoline derivatives for modulating DNA methylation” (SuperGen, Inc., priority 2007, dated 2011).
Structures can show the parent of a compound that is named as a salt.

Assays:
CMV-EE210 cell line = assay: Toxicity (TD50, cell viability) reported with the GFP assay; conditions: Dose at which cells are >50% viable
Description: The demethylating activity of non-bis-quaternary 4-anilinoquinolines were tested in a cell-based GFP (green fluorescent protein) assay. This assay has a GFP gene regulated by the CMV promoter and is sensitive to the methylation of CpG sites within the promoter. A decrease in methylation resulting from exposure to a methylation inhibitor leads to GFP expression and is readily scored. Specifically, the CMV-EE210 cell line containing the epigenetically silenced GFP transgene was used to assay for reactivation of GFP expression by flow cytometry. CMV-EE210 was made by transfecting NIH 3T3 cells with the pTR-UF/UF1/UF2 plasmid (Zolotuhin et al., 1996), which is comprised of pBS(+) (Stratagene, Inc.) containing a cytomegalovirus (CMV) promoter driving a humanized GFP gene adapted for expression in mammalian cells. After transfection, high-level GFP expressing cells were initially selected by FACS analysis and sorting using a MoFlo cytometer (Cytomation, Inc.). […] To screen for reactivation of CMV-EE210, decitabine (at […]) or a test compound (at a concentration of 30-50 μM) was added to complete medium (phenol red free DMEM (Gibco, Life Technologies) supplemented with 10% fetal bovine serum (Hyclone)). Cells were then seeded to 30% confluence (˜5000 cell/well) in 96 well plate containing the test compounds and grown for three days in at 37° C. in 5% CO2. The plates were examined under a fluorescent microscope using a 450-490 excitation filter (13 filter cube, Leica, Deerfield Ill.). Wells were scored g1 positive if 10% of viable cells express GFP, g2 positive if 30% of viable cells express GFP and g3 if greater than 75% of the viable cells express GFP. GFP IC 50 is the concentration of an inhibitor that (like an IC50) is the dose at which the GFP expression level goes from g3 to g1/2.

DNMT1 = DNMT1 (Homo sapiens, UniProt P26358); assay: Selective depletion of DNMT1 by Western blot in treated HCT116 cells; type: cell-based; set-up: Protein extracts (equivalent to 100 μg) were isolated from HCT116 cells; endogenous in cells; host or cells: HCT116; conditions: for % DNMT1 protein level remaining at 5 µM: HCT-116, 5 μM; for % DNMT1 protein level remaining at 10 µM: HCT-116, 10 μM; for % DNMT1 protein level remaining at 100 µM: HCT-116, 100 μM
Sequence of DNMT1 (P26358 whole entry): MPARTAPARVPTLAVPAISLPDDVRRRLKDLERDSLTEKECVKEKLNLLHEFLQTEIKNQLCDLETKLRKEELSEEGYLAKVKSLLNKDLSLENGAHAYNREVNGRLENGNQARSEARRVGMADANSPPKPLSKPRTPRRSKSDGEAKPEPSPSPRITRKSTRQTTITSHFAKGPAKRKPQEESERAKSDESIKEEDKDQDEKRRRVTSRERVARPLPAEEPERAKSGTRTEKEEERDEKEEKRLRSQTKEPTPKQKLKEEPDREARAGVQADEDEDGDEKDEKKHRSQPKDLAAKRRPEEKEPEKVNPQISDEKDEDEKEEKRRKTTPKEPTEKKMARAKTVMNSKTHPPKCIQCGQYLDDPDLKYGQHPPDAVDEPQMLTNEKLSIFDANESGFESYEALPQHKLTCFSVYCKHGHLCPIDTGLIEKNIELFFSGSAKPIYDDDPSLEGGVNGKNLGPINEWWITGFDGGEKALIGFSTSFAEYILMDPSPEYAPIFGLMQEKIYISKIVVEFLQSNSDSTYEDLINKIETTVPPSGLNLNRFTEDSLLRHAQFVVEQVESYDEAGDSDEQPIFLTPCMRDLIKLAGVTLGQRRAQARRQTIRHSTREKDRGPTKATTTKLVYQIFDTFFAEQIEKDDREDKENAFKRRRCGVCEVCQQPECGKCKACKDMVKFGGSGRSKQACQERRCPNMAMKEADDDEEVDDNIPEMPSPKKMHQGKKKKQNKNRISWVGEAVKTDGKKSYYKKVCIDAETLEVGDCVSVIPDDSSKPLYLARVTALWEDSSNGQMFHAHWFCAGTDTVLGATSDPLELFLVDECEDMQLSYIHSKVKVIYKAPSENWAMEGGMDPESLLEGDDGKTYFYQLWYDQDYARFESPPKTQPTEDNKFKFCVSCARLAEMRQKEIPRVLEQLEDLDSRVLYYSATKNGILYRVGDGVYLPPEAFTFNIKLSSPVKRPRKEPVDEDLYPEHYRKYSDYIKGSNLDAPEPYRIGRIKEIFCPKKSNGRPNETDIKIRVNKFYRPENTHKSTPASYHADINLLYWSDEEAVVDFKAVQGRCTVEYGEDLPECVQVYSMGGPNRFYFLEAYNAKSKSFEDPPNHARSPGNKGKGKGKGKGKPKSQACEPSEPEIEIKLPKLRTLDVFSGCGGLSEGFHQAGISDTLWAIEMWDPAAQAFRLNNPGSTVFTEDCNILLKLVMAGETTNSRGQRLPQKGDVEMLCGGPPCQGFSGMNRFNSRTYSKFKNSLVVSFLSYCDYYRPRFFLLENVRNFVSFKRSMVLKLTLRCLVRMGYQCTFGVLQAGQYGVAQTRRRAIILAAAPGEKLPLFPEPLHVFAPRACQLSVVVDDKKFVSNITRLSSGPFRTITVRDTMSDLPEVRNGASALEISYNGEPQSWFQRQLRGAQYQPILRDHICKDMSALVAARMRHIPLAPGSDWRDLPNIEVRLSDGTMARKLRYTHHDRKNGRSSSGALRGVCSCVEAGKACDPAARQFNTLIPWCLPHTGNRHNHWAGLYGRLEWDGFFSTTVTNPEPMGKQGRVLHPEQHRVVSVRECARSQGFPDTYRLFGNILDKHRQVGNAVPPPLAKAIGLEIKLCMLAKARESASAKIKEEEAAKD
From the text: Biol. 2005, 11, 4727-41.]. For DNMT1, commercially available antibodies from Santa Cruz or New England Biolabs were used.

## Cc1cc(Nc2ccc(NC(=O)c3ccc(Nc4ccnc5ccc([N+](=O)[O-])cc45)cc3)cc2)nc(N)n1 [Cpd. H, N-(4-(2-amino-6-methylpyrimidin-4-ylamino)phenyl)-4-(6-nitroquinolin-4-ylamino)benzamide hydrochloride]
CMV-EE210 cell line
  TD50: 12.5 µM
DNMT1
  % DNMT1 protein level remaining at 5 µM: 132%
  % DNMT1 protein level remaining at 10 µM: 25%
  % DNMT1 protein level remaining at 100 µM: 24%

## C/C(=N\N=C(N)N)c1ccc(NC(=O)c2ccc(Nc3ccnc4ccc([N+](=O)[O-])cc34)cc2)cc1 [Cpd. I, (E)-N-[4-{1-([diaminomethylene]hydrazono)ethyl}phenyl]-4-(6-nitroquinolin-4-ylamino)benzamide hydrochloride]
CMV-EE210 cell line
  TD50: 25 µM
DNMT1
  % DNMT1 protein level remaining at 5 µM: 27%
  % DNMT1 protein level remaining at 10 µM: 80%
  % DNMT1 protein level remaining at 100 µM: 48%

## C[n+]1ccc(Nc2cccc(C(=O)Nc3ccc(Nc4ccnc5ccc([N+](=O)[O-])cc45)cc3)c2)cc1 [Cpd. J, 4-[4-({3-[(1-methyl-4-pyridiniumyl)amino]benzoyl}amino)anilino]-6-nitroquinolinium dichloride]
CMV-EE210 cell line
  TD50: 12.5 µM
other
  melting point: > 300 °C
DNMT1
  % DNMT1 protein level remaining at 5 µM: 101%
  % DNMT1 protein level remaining at 10 µM: 89%
  % DNMT1 protein level remaining at 100 µM: 59%

## C[n+]1ccc(Nc2cccc(NC(=O)c3ccc(Nc4ccnc5ccc(N)cc45)cc3)c2)cc1 [Cpd. K, 4-[3-({4-[(6-ammonio-4-quinolinyl)amino]benzoyl}amino)anilino]-1-methylpyridinium dichloride]
CMV-EE210 cell line
  TD50: 12.5 µM
other
  melting point: 270 to 274 °C
DNMT1
  % DNMT1 protein level remaining at 5 µM: 98%
  % DNMT1 protein level remaining at 10 µM: 92%
  % DNMT1 protein level remaining at 100 µM: 37%

## C[n+]1ccc(Nc2cccc(C(=O)Nc3ccc(Nc4ccnc5ccc(N)cc45)cc3)c2)cc1 [Cpd. M, 6-amino-4-[4-({3-[(1-methyl-4-pyridiniumyl)amino]benzoyl}amino)anilino]quinolinium dichloride]
CMV-EE210 cell line
  TD50: 25 µM
other
  melting point: > 310 °C
DNMT1
  % DNMT1 protein level remaining at 5 µM: 30%
  % DNMT1 protein level remaining at 10 µM: 40%
  % DNMT1 protein level remaining at 100 µM: 43%

## C[n+]1ccc(Nc2cccc(NC(=O)c3ccc(Nc4ccnc5cc([N+](=O)[O-])ccc45)cc3)c2)cc1 [Cpd. R, 1-methyl-4-[3-({4-[(7-nitro-4-quinolinyl)amino]benzoyl}amino)anilino]pyridinium chloride]
CMV-EE210 cell line
  TD50: 25 µM
DNMT1
  % DNMT1 protein level remaining at 5 µM: 160%
  % DNMT1 protein level remaining at 10 µM: 170%
  % DNMT1 protein level remaining at 100 µM: 165%

## C[n+]1ccc(Nc2cccc(C(=O)Nc3ccc(Nc4ccnc5cc([N+](=O)[O-])ccc45)cc3)c2)cc1.Cl.[Cl-] [Cpd. T, 4-[4-({3-[(1-methyl-4-pyridiniumyl)amino]benzoyl}amino)anilino]-7-nitroquinolinium dichloride]
CMV-EE210 cell line
  TD50: 25 µM
DNMT1; 5 μM
  % DNMT1 Level: 64%
DNMT1; 10 μM
  % DNMT1 Level: 69%
DNMT1; 100 μM
  % DNMT1 Level: 85%

## C[n+]1ccc(Nc2ccc(C(=O)Nc3ccc(Nc4ccnc5cc([N+](=O)[O-])ccc45)cc3)cc2)cc1.Cl.[Cl-] [Cpd. U, 4-[4-({4-[(1-methyl-4-pyridiniumyl)amino]benzoyl}amino)anilino]-7-nitroquinolinium dichloride]
CMV-EE210 cell line
  TD50: 25 µM
DNMT1; 5 μM
  % DNMT1 Level: 97%
DNMT1; 10 μM
  % DNMT1 Level: 53%
DNMT1; 100 μM
  % DNMT1 Level: 32%

## C[n+]1ccc(Nc2cccc(NC(=O)c3ccc(Nc4ccnc5cc(N)ccc45)cc3)c2)cc1 [Cpd. V, 4-[3-({4-[(7-ammonio-4-quinolinyl)amino]benzoyl}amino)anilino]-1-methylpyridinium dichloride]
CMV-EE210 cell line
  TD50: 12.5 µM
other
  melting point: 281 to 285 °C
DNMT1
  % DNMT1 protein level remaining at 5 µM: 112%
  % DNMT1 protein level remaining at 10 µM: 110%
  % DNMT1 protein level remaining at 100 µM: 124%
